# Reference: ChEMBL document CHEMBL1201862, “PubChem BioAssay data set” (2004)
# Calls of active or inactive are those of the source. Unless noted, no cut-off for these calls is given here.
# Columns and labels:
# D(2) dopamine receptor [1] = target: T1, D(2) dopamine receptor (Homo sapiens, UniProt P14416); assay: D2L dopamine receptor antagonism, confirmation, counter-screen for D4 antagonist project, cell-based, D2L isoform, human (AID 743377); format: functional
# D(2) dopamine receptor [2] = target: T1, D(2) dopamine receptor; assay: Counterscreening of D4 Antagonists against Dopamine 2S (Human), Confirmatory Assay.; format: functional
# D(3) dopamine receptor = D(3) dopamine receptor (Homo sapiens, UniProt P35462); assay: Counterscreening of D4 Antagonists against Dopamine 3 DRD3 (Human), Confirmatory Assay.; format: functional
# Sequence of D(3) dopamine receptor (P35462 whole entry): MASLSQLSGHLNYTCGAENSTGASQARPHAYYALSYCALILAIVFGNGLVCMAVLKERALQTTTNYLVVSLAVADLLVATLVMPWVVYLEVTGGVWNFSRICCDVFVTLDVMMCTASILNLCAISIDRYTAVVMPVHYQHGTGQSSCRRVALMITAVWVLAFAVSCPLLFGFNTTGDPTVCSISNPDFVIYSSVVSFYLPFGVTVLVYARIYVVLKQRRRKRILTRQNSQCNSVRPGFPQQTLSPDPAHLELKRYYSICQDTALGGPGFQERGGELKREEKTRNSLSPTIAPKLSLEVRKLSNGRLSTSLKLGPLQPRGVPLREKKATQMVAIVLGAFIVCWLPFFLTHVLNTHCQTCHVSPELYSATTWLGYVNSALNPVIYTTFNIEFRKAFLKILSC
# D(1A) dopamine receptor = D(1A) dopamine receptor (Homo sapiens, UniProt P21728); assay: Counterscreening of D4 Antagonists against Dopamine 1 (Human), Confirmatory Assay.; format: functional
# D(1B) dopamine receptor = D(1B) dopamine receptor (Homo sapiens, UniProt P21918); assay: Counterscreening of D4 Antagonists against Dopamine 5 DRD5 (Human), Confirmatory Assay.; format: functional
# [3] = target: Protein-tyrosine kinase 2-beta (Homo sapiens, UniProt Q14289);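 note: potency of inhibitors of PYK2 kinase phosphorylation of poly-GT substrate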
# Sequence of Protein-tyrosine kinase 2-beta (Q14289 whole entry): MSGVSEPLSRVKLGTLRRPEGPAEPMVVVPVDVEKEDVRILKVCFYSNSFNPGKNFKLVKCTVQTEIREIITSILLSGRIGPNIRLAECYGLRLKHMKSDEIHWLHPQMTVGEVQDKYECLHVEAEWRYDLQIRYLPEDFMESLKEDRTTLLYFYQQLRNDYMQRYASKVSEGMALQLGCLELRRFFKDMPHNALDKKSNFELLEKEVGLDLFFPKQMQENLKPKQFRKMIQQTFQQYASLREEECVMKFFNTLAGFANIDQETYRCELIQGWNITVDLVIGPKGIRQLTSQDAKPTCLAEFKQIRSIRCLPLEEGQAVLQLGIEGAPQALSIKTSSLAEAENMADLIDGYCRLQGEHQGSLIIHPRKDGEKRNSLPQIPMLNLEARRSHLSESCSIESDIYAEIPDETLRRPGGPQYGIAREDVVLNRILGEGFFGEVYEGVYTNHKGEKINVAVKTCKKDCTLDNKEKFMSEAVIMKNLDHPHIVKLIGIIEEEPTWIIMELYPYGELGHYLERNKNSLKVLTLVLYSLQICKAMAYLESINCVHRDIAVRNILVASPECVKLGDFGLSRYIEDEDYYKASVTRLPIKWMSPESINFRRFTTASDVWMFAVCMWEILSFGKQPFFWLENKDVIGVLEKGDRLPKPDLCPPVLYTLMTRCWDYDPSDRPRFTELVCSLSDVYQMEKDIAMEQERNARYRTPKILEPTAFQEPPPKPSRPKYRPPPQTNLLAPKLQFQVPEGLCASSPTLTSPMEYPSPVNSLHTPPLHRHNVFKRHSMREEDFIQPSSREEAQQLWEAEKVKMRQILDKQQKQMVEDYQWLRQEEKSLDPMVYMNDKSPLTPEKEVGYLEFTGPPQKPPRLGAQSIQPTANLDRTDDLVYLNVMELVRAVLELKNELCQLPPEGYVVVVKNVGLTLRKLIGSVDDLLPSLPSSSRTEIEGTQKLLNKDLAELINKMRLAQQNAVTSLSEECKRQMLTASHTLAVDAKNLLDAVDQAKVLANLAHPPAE
# Galanin receptor type 2 = Galanin receptor type 2 (Homo sapiens, UniProt O43603); assay: Dose Response cell-based high-throughput screening assay to identify antagonists of galanin receptor 2 (GALR2). [Related pubchem assays: 828, 866 ]; format: functional
# [4] = target: Induced myeloid leukemia cell differentiation protein Mcl-1 (Homo sapiens, UniProt Q07820); format: functional
# [5] = target: Bifunctional protein GlmU (Mycobacterium tuberculosis, UniProt P9WMN3); assay: Inhibitors of Mycobacterial Glucosamine-1-phosphate acetyl transferase (GlmU). Secondary screen.; design: species or system Mycobacterium tuberculosis H37Rv
# Sequence of Bifunctional protein GlmU (P9WMN3 whole entry): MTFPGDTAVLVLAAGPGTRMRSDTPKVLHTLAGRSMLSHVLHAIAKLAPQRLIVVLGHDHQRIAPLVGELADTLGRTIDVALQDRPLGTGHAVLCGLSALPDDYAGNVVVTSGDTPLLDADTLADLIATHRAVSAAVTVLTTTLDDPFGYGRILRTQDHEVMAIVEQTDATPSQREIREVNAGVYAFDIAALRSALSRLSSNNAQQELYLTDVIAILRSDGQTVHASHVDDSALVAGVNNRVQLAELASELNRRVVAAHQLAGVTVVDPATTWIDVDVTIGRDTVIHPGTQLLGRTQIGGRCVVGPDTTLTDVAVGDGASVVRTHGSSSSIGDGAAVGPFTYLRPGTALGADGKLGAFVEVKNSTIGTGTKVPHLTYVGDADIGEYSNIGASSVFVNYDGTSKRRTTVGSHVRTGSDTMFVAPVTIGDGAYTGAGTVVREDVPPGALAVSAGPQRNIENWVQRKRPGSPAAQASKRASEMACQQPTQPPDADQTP
# [6] = target: Peroxisome proliferator-activated receptor gamma/Nuclear receptor coactivator 2 (Homo sapiens, UniProt P37231); format: functional;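 note: agonist potency for raising coactivator recruitment to the receptor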
# [7] = target: Peroxisome proliferator-activated receptor gamma/Nuclear receptor coactivator 1 (Homo sapiens, UniProt P37231); format: functional;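 note: agonist potency as compounds enhance coactivator SRC-1 recruitment to PPARgamma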
# [8] = target: Peroxisome proliferator-activated receptor gamma/Nuclear receptor coactivator 3 (Homo sapiens, UniProt P37231); format: functional;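 note: agonist potency for raising coactivator recruitment to the receptor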
# [9] = target: Ubiquitin carboxyl-terminal hydrolase BAP1 (Homo sapiens, UniProt Q92560); assay: BAP1 deubiquitinase inhibitors, dose response, biochemical (AID 714); format: functional
# [10] = target: T2, RNA-binding protein pos-1 (Caenorhabditis elegans, UniProt G5EF15); assay: inhibitors of POS-1/mex-3 RNA binding, dose response, biochemical, fluorescence polarization (AID 1964);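 note: purified POS-1 fused to maltose binding protein made in E. coli; potency of compounds blocking POS-1 binding to fluorescent RNA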
# T2 sequence (G5EF15 whole entry): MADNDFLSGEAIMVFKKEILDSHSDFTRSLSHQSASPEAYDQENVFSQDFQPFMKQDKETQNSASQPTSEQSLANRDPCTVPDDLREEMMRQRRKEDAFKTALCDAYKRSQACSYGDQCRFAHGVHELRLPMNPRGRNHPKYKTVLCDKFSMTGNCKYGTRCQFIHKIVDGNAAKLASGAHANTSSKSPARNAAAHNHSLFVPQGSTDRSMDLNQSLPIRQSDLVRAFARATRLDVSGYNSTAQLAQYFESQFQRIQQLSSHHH
# [11] = target: T3, Zinc finger protein mex-5 (Caenorhabditis elegans, UniProt Q9XUB2); assay: MEX-5/TCR-2 RNA interaction inhibitors, dose response, biochemical, C. elegans, fluorescence polarization (AID 1960)
# T3 sequence (Q9XUB2 whole entry): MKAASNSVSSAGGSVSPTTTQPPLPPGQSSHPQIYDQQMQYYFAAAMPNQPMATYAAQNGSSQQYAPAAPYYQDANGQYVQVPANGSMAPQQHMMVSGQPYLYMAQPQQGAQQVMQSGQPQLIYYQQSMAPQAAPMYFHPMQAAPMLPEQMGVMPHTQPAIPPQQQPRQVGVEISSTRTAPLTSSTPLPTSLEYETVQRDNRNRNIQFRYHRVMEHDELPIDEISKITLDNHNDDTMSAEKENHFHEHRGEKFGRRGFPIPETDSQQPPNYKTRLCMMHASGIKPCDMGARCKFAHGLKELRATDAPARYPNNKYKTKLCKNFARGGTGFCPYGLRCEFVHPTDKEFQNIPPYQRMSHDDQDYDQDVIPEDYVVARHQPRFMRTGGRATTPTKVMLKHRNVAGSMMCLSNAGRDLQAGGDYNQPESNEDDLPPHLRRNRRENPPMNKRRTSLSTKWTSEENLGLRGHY
# [12] = target: T4, Histone-lysine N-methyltransferase NSD2 (Homo sapiens, UniProt O96028); format: biochemical
# T4 sequence (O96028 whole entry): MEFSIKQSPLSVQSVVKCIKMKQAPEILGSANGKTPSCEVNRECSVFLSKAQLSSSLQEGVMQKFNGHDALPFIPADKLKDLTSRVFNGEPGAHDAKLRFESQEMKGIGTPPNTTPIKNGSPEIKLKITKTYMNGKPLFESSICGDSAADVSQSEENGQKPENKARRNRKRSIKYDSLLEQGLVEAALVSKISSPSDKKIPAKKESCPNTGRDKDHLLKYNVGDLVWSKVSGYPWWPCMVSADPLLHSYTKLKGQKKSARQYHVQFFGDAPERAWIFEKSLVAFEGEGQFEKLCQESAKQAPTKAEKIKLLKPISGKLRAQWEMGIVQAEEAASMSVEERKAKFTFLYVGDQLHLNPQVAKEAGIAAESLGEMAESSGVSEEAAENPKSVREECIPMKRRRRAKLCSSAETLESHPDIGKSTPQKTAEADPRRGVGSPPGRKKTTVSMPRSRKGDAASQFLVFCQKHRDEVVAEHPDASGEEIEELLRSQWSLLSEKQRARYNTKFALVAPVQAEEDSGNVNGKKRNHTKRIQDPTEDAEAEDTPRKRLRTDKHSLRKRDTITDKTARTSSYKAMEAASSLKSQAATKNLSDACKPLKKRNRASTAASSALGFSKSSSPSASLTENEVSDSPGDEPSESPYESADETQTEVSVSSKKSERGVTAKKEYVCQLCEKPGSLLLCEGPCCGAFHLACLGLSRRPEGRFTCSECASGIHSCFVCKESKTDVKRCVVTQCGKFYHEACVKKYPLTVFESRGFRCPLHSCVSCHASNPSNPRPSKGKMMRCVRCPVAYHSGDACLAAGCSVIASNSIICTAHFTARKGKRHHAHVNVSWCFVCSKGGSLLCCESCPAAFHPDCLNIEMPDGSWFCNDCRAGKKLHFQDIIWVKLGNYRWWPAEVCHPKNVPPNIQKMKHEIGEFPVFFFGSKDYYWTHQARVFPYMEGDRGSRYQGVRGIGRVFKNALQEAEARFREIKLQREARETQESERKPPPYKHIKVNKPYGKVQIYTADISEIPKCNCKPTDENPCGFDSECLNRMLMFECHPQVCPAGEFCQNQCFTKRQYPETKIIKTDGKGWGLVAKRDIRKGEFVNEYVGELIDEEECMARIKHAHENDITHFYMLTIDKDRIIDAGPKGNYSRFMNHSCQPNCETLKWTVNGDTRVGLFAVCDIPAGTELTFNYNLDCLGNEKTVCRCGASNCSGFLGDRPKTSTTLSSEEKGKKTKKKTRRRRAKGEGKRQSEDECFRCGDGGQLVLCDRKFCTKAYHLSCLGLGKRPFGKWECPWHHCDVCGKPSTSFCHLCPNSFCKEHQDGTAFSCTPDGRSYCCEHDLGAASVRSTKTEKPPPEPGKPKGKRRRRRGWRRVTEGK
# [13] = target: 1-phosphatidylinositol 4,5-bisphosphate phosphodiesterase beta-3 (Homo sapiens, UniProt Q01970); assay: Fluorescence-based biochemical high throughput dose response assay to identify inhibitors of phospholipase C isozymes (PLC-B3).
# Caspase-6 = Caspase-6 (Homo sapiens, UniProt P55212); assay: human caspase-6 inhibitors, dose response, biochemical, VEID-R110 fluorescence, cherry-pick (AID 720632)
# Sequence of Caspase-6 (P55212 24-179 limits assumed): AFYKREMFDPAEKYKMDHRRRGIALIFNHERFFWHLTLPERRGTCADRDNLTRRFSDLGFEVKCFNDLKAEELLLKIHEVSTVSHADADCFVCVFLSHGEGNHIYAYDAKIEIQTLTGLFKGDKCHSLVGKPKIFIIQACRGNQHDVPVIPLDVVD
# Sequence of Caspase-6 (P55212 194-293 limits assumed): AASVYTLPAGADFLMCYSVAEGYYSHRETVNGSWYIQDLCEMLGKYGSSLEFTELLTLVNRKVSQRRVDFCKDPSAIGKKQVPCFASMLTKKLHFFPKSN
# [14] = target: RNA-editing ligase 1, mitochondrial (Trypanosoma brucei brucei, UniProt P86926); assay: TbREL1 ligase inhibitors, dose response, biochemical, fluorescence, Trypanosoma brucei (AID 1117295); format: functional
# Caspase-9 = Caspase-9 (Homo sapiens, UniProt P55211); assay: caspase-9 enzyme inhibition, dose response, selectivity assay for caspase-6 inhibitor project, biochemical, fluorescence, plate reader, cherry-picked samples (AID 743293)
# [15] = target: DNA (cytosine-5)-methyltransferase 1 (Homo sapiens, UniProt P26358); assay: DNMT1 methyltransferase inhibitors, confirmation, biochemical, fluorescent molecular beacon (AID 602386); format: functional
# Sequence of DNA (cytosine-5)-methyltransferase 1 (P26358 whole entry): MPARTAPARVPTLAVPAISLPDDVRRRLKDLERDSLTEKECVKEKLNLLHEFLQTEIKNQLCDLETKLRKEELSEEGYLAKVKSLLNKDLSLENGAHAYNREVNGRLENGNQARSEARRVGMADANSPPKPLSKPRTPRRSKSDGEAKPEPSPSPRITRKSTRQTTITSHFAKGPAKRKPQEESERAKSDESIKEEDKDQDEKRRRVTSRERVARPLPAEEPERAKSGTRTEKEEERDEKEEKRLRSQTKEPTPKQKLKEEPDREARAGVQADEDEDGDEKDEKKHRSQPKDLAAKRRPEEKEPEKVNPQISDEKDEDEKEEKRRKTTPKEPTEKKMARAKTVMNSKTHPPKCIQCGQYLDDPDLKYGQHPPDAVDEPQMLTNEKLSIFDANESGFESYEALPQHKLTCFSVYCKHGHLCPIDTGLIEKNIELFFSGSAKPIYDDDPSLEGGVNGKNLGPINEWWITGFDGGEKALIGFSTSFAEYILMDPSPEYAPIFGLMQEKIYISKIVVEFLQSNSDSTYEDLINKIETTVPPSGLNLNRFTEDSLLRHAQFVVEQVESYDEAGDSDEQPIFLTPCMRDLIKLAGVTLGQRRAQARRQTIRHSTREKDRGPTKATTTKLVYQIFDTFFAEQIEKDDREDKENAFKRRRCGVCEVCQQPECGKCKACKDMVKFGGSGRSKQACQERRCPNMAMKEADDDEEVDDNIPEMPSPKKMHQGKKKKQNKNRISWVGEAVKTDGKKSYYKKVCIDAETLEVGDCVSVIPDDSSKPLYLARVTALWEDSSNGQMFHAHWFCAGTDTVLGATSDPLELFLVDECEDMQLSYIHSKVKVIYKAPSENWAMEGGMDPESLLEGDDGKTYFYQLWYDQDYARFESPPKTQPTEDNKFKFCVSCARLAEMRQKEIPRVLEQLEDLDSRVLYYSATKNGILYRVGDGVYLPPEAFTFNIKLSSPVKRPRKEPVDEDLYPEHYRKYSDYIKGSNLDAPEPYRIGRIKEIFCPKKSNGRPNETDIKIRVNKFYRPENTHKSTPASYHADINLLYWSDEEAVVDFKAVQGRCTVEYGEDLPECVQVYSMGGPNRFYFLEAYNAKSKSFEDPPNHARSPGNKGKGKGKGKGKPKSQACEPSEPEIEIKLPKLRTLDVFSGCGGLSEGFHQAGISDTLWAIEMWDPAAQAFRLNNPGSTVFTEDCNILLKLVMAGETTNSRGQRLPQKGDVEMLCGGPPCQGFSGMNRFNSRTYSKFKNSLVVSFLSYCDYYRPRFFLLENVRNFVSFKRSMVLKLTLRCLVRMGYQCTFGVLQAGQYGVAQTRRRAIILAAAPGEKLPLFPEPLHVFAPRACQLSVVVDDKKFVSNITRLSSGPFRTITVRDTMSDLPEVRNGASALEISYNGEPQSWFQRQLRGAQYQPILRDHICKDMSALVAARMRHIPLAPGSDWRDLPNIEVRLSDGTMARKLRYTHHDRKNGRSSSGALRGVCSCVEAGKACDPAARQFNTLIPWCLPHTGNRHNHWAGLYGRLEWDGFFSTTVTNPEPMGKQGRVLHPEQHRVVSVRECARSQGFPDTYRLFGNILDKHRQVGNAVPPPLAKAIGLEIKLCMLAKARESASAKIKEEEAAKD
# [16] = target: 1-phosphatidylinositol 4,5-bisphosphate phosphodiesterase gamma-1 (Homo sapiens, UniProt P19174); assay: Counterscreen for inhibitors of phospholipase C isozymes (PLC-B3): Fluorescence-based biochemical high throughput dose response assay to identify inhibitors of phospholipase C isozymes (PLC-gamma1).
# [17] = target: E3 ubiquitin-protein ligase Mdm2 (Homo sapiens, UniProt Q00987); assay: enhancers of MDM2-luciferase reporter signal, concentration-effect titration, project on inhibitors of MDM2 ubiquitin ligase, cellular assay, luminescent readout, 384-well plate format (AID 1394); format: functional;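 note: MDM2 E3 inhibitors raise luminescence so EC50 is for signal enhancement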
# [18] = target: G-protein coupled receptor 183 (Homo sapiens, UniProt P32249); assay: SAR confirmation of small molecule antagonists of the EBI2 receptor via a luminescent beta-arrestin assa.; format: functional
# NADPH oxidase 1 = NADPH oxidase 1 (Homo sapiens, UniProt Q9Y5S8); assay: Late-stage luminescence-based cell-based dose response assay to identify inhibitors of NADPH oxidase 1 (NOX1): Purchased analogs 2.; format: functional
# Sequence of NADPH oxidase 1 (Q9Y5S8 whole entry): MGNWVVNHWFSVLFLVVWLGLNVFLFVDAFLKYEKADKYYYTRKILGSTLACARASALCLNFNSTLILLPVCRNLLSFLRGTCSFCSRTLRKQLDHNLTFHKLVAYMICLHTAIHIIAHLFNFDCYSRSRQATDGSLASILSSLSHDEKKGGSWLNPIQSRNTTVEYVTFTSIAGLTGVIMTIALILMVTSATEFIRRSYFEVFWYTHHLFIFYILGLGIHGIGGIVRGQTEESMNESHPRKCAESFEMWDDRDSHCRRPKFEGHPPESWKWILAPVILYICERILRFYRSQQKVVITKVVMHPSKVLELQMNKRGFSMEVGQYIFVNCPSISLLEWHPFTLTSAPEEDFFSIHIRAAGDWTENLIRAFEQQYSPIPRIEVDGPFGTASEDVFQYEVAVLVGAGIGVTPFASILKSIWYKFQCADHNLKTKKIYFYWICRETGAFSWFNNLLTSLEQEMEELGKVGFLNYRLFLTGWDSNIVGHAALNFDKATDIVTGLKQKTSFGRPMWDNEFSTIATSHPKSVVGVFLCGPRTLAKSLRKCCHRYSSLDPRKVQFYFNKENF
# T1 sequence (P14416 whole entry, canonical isoform): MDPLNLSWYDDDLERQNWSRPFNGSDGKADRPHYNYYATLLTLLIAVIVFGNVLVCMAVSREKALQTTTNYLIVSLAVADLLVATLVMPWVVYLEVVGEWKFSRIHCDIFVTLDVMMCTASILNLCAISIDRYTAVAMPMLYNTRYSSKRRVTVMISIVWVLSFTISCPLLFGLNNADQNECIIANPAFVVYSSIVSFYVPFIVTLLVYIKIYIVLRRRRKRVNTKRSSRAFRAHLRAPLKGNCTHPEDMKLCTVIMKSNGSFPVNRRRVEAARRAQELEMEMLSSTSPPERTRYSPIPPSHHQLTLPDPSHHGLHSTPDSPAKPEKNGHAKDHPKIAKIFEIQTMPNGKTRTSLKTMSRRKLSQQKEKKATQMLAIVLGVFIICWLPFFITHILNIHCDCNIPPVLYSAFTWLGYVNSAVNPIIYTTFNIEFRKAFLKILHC
smiles,measurement,setting,value
COc1ccc(CN2CCO[C@@H](CCc3ccccc3)C2)cc1,IC50,D(2) dopamine receptor [1],16.5 µM (active)
same,IC50,D(2) dopamine receptor [2],20 µM (inactive)
same,IC50,D(3) dopamine receptor,8.17 µM (active)
same,IC50,D(1A) dopamine receptor,20 µM (inactive)
same,IC50,D(1B) dopamine receptor,20 µM (inactive)
COc1ccc([N+](=O)[O-])cc1COc1cc(C)cc2oc(=O)cc(-c3ccccc3)c12,IC50,[3],> 69.5 µM (not active)
CCOC(=O)COc1ccc(S(=O)(=O)NCc2ccncc2)cc1,IC50,Galanin receptor type 2,> 42 µM (not active)
O=C1OCC2OC(O)C(O)C(O)C2OC(=O)c2cc(O)c(O)c(O)c2-c2c(O)c(O)c3oc(=O)c4c(c(O)c(O)c5oc(=O)c2c3c54)-c2c1cc(O)c(O)c2O (stereo not given),IC50,[4],1.56 µM (active)
same,IC50,[5],< 1 µM (active)
CCc1nc(SCC(=O)Nc2ccc3c(c2)OCCO3)c2oc3ccccc3c2n1,EC50,[6],23.3 µM (not active)
same,EC50,[7],> 79.4 µM (not active)
same,EC50,[8],> 79.4 µM (not active)
same,IC50,[9],13.9 µM (active)
Nc1cc(S(=O)(=O)O)cc([N+](=O)[O-])c1O,EC50,[10],> 300 µM (not active)
same,EC50,[11],> 300 µM (not active)
same,AC50,[12],16.3 µM (active)
same,IC50,[13],> 123 µM (inactive)
same,AC50,Caspase-6,3.5 µM (active)
same,IC50,[14],4.99 µM (active)
same,AC50,Caspase-9,> 70 µM (inactive)
same,IC50,[15],3.2 µM (active)
same,IC50,[16],3.97 µM (active)
Cc1ccc(-n2c(C)cc(C=C3C(=O)CC(C)(C)CC3=O)c2C)cc1,EC50,[17],17.4 µM (not active)
O=C(/C=C/c1ccc(F)cc1)N1CCN(S(=O)(=O)c2ccc(Br)cc2)CC1,IC50,[18],0.00343 µM (active)
O=C(Oc1ccccc1)c1cc2cc([N+](=O)[O-])ccc2s1,IC50,NADPH oxidase 1,> 17 µM (not active)
